From PubChem BioAssay AID1259411 (Chemical Carcinogenesis Research Information System (CCRIS), 2018) come the findings set out here.

The data set has as its system rodent carcinogenicity bioassays, tumor incidence. In words: CCRIS carcinogenicity studies. Particulars: Dose: 0. Put shortly: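 NCI-built, expert-reviewed records of carcinogenicity and related test outcomes (mutagenicity, tumor promotion/inhibition) compiled from published and report sources, historical span 1985-2011, not updated.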

Structures are written as SMILES. Calls of active or inactive are those of the source. The rule behind the calls is not given here.

Regarding `C=C1C[C@]23C[C@@]1(O)CC[C@H]2[C@@]12C=C[C@H](O)[C@@](C)(C(=O)O1)[C@H]2[C@@H]3C(=O)O`, the carcinogen call runs as follows: (Species: MOUSE, Strain/Sex: SWISS/FEMALE, Route: GAVAGE, 3 PPM IN 0.3 ML PHYSIOLOGICAL SALINE 2/WK FOR 22 MO (STUDY DURATION: 22 MO), Tumor Site: Type of Lesion: BREAST: ADENOCARCINOMA, SKIN: SEBACEOUS ADENOMA) “active; positive”; (Species: MOUSE, Strain/Sex: SWISS/MALE, Route: GAVAGE, 3 PPM IN 0.3 ML PHYSIOLOGICAL SALINE 2/WK FOR 22 MO (STUDY DURATION: 22 MO), Tumor Site: Type of Lesion: SKIN: SEBACEOUS ADENOMA, LUNG: TUMOR) “active; positive”.
For the molecule `Cc1cccc(C)c1NC(=O)CN1CCCC1=O`, the carcinogen call is, setting by setting: (Species: MOUSE, Strain/Sex: B6C3F1/FEMALE, Route: ORAL, 30, 90, 270 MG/KG/D IN DIET FOR 104 WK (STUDY DURATION: 104 WK), 30, 90, 270 MG/KG/D IN DIET FOR 104 WK (STUDY DURATION: 104 WK)) “inactive; negative”; (Species: MOUSE, Strain/Sex: B6C3F1/MALE, Route: ORAL, 30, 90, 270 MG/KG/D IN DIET FOR 104 WK (STUDY DURATION: 104 WK), 30, 90, 270 MG/KG/D IN DIET FOR 104 WK (STUDY DURATION: 104 WK)) “inactive; negative”; (Species: RAT, Strain/Sex: F344/FEMALE, Route: ORAL, 200, 600, 1800 PPM IN DIET FOR 104 WK (STUDY DURATION: 104 WK), 200, 600, 1800 PPM IN DIET FOR 104 WK (STUDY DURATION: 104 WK)) “inactive; negative”; (Species: RAT, Strain/Sex: F344/MALE, Route: ORAL, 200, 600, 1800 PPM IN DIET FOR 104 WK (STUDY DURATION: 104 WK), 200, 600, 1800 PPM IN DIET FOR 104 WK (STUDY DURATION: 104 WK)) “inactive; negative”.
For `CNc1ccc(N)cc1`, the carcinogen call (Species: MOUSE, Strain/Sex: B6C3F1/MALE, Route: INTRAPERITONEAL, 0.15 UMOL/G ONCE IN SODIUM ACETATE BUFFER (STUDY DURATION: 10 MO)) was “inactive; negative”.
On to `Nc1cc2c3c(ccc2c2ccccc12)[C@H](O)[C@@H](O)C=C3`, for which the carcinogen call was “active; positive” (Species: MOUSE, Strain/Sex: SWISS/FEMALE, Route: INTRAPERITONEAL, 100 NMOL (TOTAL DOSE) 1/7, 2/7 AND 4/7 ADMINISTERED ON DAYS 1, 8 AND 15 OF LIFE RESPECTIVELY (STUDY DURATION: 32 WK), Tumor Site: Type of Lesion: LUNG: TUMOR) and “active; positive” (Species: MOUSE, Strain/Sex: SWISS/MALE, Route: INTRAPERITONEAL, 100 NMOL (TOTAL DOSE) 1/7, 2/7 AND 4/7 ADMINISTERED ON DAYS 1, 8 AND 15 OF LIFE RESPECTIVELY (STUDY DURATION: 32 WK), Tumor Site: Type of Lesion: LUNG: TUMOR, LIVER: TUMOR).
In the case of `C[C@@H]1Cc2c(Cl)cc(C(=O)NC(Cc3ccccc3)C(=O)O)c(O)c2C(=O)O1` (stereo not given in full), the carcinogen call runs as follows: (Species: MOUSE, Strain/Sex: ALBINO/MALE,FEMALE, Route: GAVAGE, 0.25 ML OF 50 PPM SOLUTION 2/WK FOR 20 WK (STUDY DURATION: 20 WK), Tumor Site: Type of Lesion: KIDNEY: CARCINOMA) “active; positive”; (Species: MOUSE, Strain/Sex: CD-1/FEMALE, Route: ORAL, 0.031, 0.125, 0.5% IN DIET FOR 78 WK (STUDY DURATION: 78 WK), 0.031, 0.125, 0.5% IN DIET FOR 78 WK (STUDY DURATION: 78 WK)) “inactive; negative”; (Species: MOUSE, Strain/Sex: CD-1/MALE, Route: ORAL, 0.031, 0.125, 0.5% IN DIET FOR 78 WK (STUDY DURATION: 78 WK), 0.031, 0.125, 0.5% IN DIET FOR 78 WK (STUDY DURATION: 78 WK)) “inactive; negative”; (Species: MOUSE, Strain/Sex: DDD/MALE, Route: ORAL, 25 PPM IN DIET FOR 70 WK (STUDY DURATION: 70 WK), Tumor Site: Type of Lesion: KIDNEY: RENAL CELL TUMOR, LIVER: HEPATOMA) “active; positive”; (Species: MOUSE, Strain/Sex: DDY/MALE, Route: ORAL, 7.05, 17.24, 26.27, 33.16, 35.86, 42.67 MG/MOUSE (TOTAL DOSE) ADMINISTERED AT A DOSE OF 50 PPM IN DIET FOR 0, 5, 10,, 7.05, 17.24, 26.27, 33.16, 35.86, 42.67 MG/MOUSE (TOTAL DOSE) ADMINISTERED AT A DOSE OF 50 PPM IN DIET FOR 0, 5, 10,, Tumor Site: Type of Lesion: LIVER: HEPATOMA, KIDNEY: RENAL CELL TUMOR) “active; positive”; (Species: MOUSE, Strain/Sex: SWISS/MALE,FEMALE, Route: GAVAGE, 0.25 ML OF A 50 PPM SOLUTION 2/WK FOR 20 WK (STUDY DURATION: 20 WK), Tumor Site: Type of Lesion: KIDNEY: CARCINOMA) “active; positive”. Further, the carcinogen call is, setting by setting: (Species: RAT, Strain/Sex: DA/FEMALE, Route: GAVAGE, 0.4 MG/KG BW IN SODIUM BICARBONATE 3/WK FOR DURATION OF STUDY (STUDY DURATION: LIFESPAN)) “inactive; negative”; (Species: RAT, Strain/Sex: DA/MALE, Route: GAVAGE, 0.4 MG/KG BW IN SODIUM BICARBONATE 3/WK FOR DURATION OF STUDY (STUDY DURATION: LIFESPAN), Tumor Site: Type of Lesion: KIDNEY: ADENOCARCINOMA, ADENOMA) “active; positive”; (Species: RAT, Strain/Sex: F344/FEMALE, Route: GAVAGE, 21, 70, 210 UG/KG IN CORN OIL 5 D/WK FOR 103 WK (STUDY DURATION: 105 WK), 21, 70, 210 UG/KG IN CORN OIL 5 D/WK FOR 103 WK (STUDY DURATION: 105 WK), Tumor Site: Type of Lesion: KIDNEY TUBULE: ADENOMA, CARCINOMA, MAMMARY GLAND: FIBROADENOMA, ADENOMA OR FIBROADENOMA OR ADENOCARCINOMA) “active; positive”; (Species: RAT, Strain/Sex: F344/MALE, Route: GAVAGE, 21, 70, 210 UG/KG IN CORN OIL 5 D/WK FOR 103 WK (STUDY DURATION: 106 WK), 21, 70, 210 UG/KG IN CORN OIL 5 D/WK FOR 103 WK (STUDY DURATION: 106 WK), Tumor Site: Type of Lesion: KIDNEY TUBULE: ADENOMA, CARCINOMA) “active; positive”; (Species: RAT, Strain/Sex: LEWIS/FEMALE, Route: GAVAGE, 0.4 MG/KG BW IN SODIUM BICARBONATE 3/WK FOR DURATION OF STUDY (STUDY DURATION: LIFESPAN), Tumor Site: Type of Lesion: KIDNEY: ADENOCARCINOMA) “active; positive”; (Species: RAT, Strain/Sex: LEWIS/MALE, Route: GAVAGE, 0.4 MG/KG BW IN SODIUM BICARBONATE 3/WK FOR DURATION OF STUDY (STUDY DURATION: LIFESPAN), Tumor Site: Type of Lesion: KIDNEY: ADENOCARCINOMA) “active; positive”.
For the molecule `COc1cc(OC)nc(Oc2cccc(Oc3nc(OC)cc(OC)n3)c2C(=O)O)n1`, the carcinogen call is, setting by setting: (Species: Mouse, Strain/Sex: B6C3F1/Female (50/sex/dose), Route: Oral, 10, 100, 2500, 5000 ppm in diet for 104 wk, 10, 100, 2500, 5000 ppm in diet for 104 wk) “inactive; negative; purity 98.4%; interim sacrifices of 10 additional animals/sex/dose at”; (Species: Mouse, Strain/Sex: B6C3F1/Male (50/sex/dose), Route: Oral, 10, 100, 2500, 5000 ppm in diet for 104 wk, 10, 100, 2500, 5000 ppm in diet for 104 wk) “inactive; negative; purity 98.4%; interim sacrifices of 10 additional animals/sex/dose at”; (Species: Rat, Strain/Sex: F344/Female (48/sex/dose), Route: Oral, 20, 200, 3000, 10000 ppm in diet for 104 wk, 20, 200, 3000, 10000 ppm in diet for 104 wk) “inactive; negative; purity 97.2%; interim sacrifices of 10 additional animals/sex/dose at”; (Species: Rat, Strain/Sex: F344/Male (48/sex/dose), Route: Oral, 20, 200, 3500, 7000 ppm in diet for 104 wk, 20, 200, 3500, 7000 ppm in diet for 104 wk) “inactive; negative; purity 97.2%; interim sacrifices of 10 additional animals/sex/dose at”.
